The source of these data is publication PMC10448176, “Arsenite oxidase in complex with antimonite and arsenite oxyanions: Insights into the catalytic mechanism” (The Journal of Biological Chemistry, 2023).

The experiment deals with Af Aio (arsenite oxidase, AioA/AioB) (Alcaligenes faecalis, UniProt Q7SIF4). Conditions: Mo active site of AioA, covalent.

Where two headings read alike, the source gives them in different places.

On to `O[As](O)O` [As, arsenite], for which, for the setting “10 mM sodium arsenite soak of ferricyanide-oxidized crystals, mu-oxo bridged to Mo, two structures: As_d (8CH9, two oxo bridges) and As_c (8CFF, one bridge, possible)”, the “X-ray crystallography, crystal soak” value was “the As ion is bound to Mo via one μ-oxo bridge (Mo-Ox-As)”. In the case of `[OH][Sb]([OH])[OH]` [Sb, antimonite], the “X-ray crystallography, crystal soak” value (10 mM potassium antimonyl tartrate soak of ferricyanide-oxidized crystals, one oxo bridge to Mo, Sb with four further oxo/hydroxo groups, turnover intermediate) was “the Sb atom is sitting vertically to Mo and coordinated to the oxo ligand”.
